Experiments:
[1] = test system: mice with CIA; assay: Collagen‐induced arthritis (CIA) model, clinical arthritis score; assay type: in vivo, mouse (DBA/1); conditions: 0.1 mg/kg, positive control; data not shown
Experimental: (§1) Animal studies were performed by Bolder BioPATH (Boulder, CO, USA). CIA was induced in male 6‐ to 7‐week‐old DBA/1 mice by immunization with bovine type II collagen as previously described 19. Briefly, mice were injected intradermally with 100 μl of Freund's complete adjuvant containing 250 μg of bovine type II collagen (2 mg/ml final concentration) at the base of the tail on day 0 and again on day 21. On day 24, mice were randomized by body weight into treatment groups. At enrolment on day 24, the mean mouse weight was 20 g. Arthritis onset occurred on days 26‐38. Starting day 24, mice were injected intraperitoneally (i.p.) daily for 14 consecutive days with GF9 (2.5 and 25 mg/kg), GF9‐G (25 mg/kg), GF9‐dHDL (2.5 mg/kg), GF9‐sHDL (2.5 mg/kg), GA/E31‐dHDL (dose equivalent to 4 mg of GF9/kg), GA/E31‐sHDL (dose equivalent to 4 mg of GF9/kg) or with PBS. Mice were weighed on study days 24, 26, 28, 30, 32, 34, 36 and 38 (prior to necropsy). Daily clinical scores were given on a scale of 0–5 for each of the paws on days 24–38 using previously described criteria 19. On day 38, mice were killed for necropsy.

[2] = test system: joints of mice with CIA; assay: Histology assessment of joints in CIA; assay type: in vivo, mouse (DBA/1); parameters: dose or concentration left out as unconfirmed
Experimental: as §1, with “([…]),” for “(i.p.) daily for 14 consecutive days with GF9 (2.5 and 25 mg/kg), GF9‐G (25 mg/kg), GF9‐dHDL (2.5 mg/kg),”, “([…]),” for “(dose equivalent to 4 mg of GF9/kg),”, “([…])” for “(dose equivalent to 4 mg of GF9/kg)”, “On day 38, mice were killed for necropsy.” left out
At the end of study, fore paws, hind paws and knees were harvested, fixed in 10% neutral buffered formalin for 1–2 days, and then decalcified in 5% formic acid for 4–5 days before standard processing for paraffin embedding. […] The joints were then assessed using 0–5 scale for inflammation, pannus formation, cartilage damage, bone resorption and periosteal new bone formation as previously reported 19. A summed histopathology score (sum of five parameters, 0–25 scale) was also determined.

Compound: C[C@@H]1C[C@H]2[C@@H]3CCC4=CC(=O)C=C[C@]4(C)[C@@]3(F)[C@@H](O)C[C@]2(C)[C@@]1(O)C(=O)CO [dexamethasone]
- anti‐arthritic effect relative to GF9 at 25 mg/kg [1]: comparable
- joint lesions (histopathology) ([2]; arthritic mice, day 38, not shown): No lesions were observed
- reduction of summed histopathology scores compared to vehicle‐treated mice ([2]; data not shown): 99%

— paper PMC5618672, “Rationally designed ligand‐independent peptide inhibitors of TREM‐1 ameliorate collagen‐induced arthritis” (Journal of Cellular and Molecular Medicine, 2017)
